Article PMC5298231, “The Malaria Parasite's Lactate Transporter PfFNT Is the Target of Antiplasmodial Compounds Identified in Whole Cell Phenotypic Screens” (PLoS Pathogens, 2017)
Where two headings read alike, the source gives them in different places.

System: erythrocytes infected with 3D7 trophozoites
Format: cell-based, Plasmodium falciparum
Details: 6 μM

Compound: COc1ccc2c(c1)OC(O)(C(F)(F)C(F)(F)F)CC2=O (stereo not drawn) [MMV007839]
- ESFG log2 ratio (+MMV007839/-MMV007839) (Av 1hr): 0.4045
- EVGG log2 ratio (+MMV007839/-MMV007839) (Av 1hr): 0.01776
- Erythrose 4-phosphate log2 ratio (+MMV007839/-MMV007839) (Av 1hr): -0.3514
- FAD log2 ratio (+MMV007839/-MMV007839) (Av 1hr): -0.08791
- FMN log2 ratio (+MMV007839/-MMV007839) (Av 1hr): -0.2425
- Farnesyl diphosphate log2 ratio (+MMV007839/-MMV007839) (Av 1hr): -0.0002912
- Folate log2 ratio (+MMV007839/-MMV007839) (Av 1hr): -0.2316
- Fructose-1-6-bisphosphate log2 ratio (+MMV007839/-MMV007839) (Av 1hr): 1.122
- Fructose-6-Phosphate log2 ratio (+MMV007839/-MMV007839) (Av 1hr): 0.08818
- GDP log2 ratio (+MMV007839/-MMV007839) (Av 1hr): -0.6846
- GDP-mannose log2 ratio (+MMV007839/-MMV007839) (Av 1hr): 0.01571
- GMP log2 ratio (+MMV007839/-MMV007839) (Av 1hr): -1.125
- GTP log2 ratio (+MMV007839/-MMV007839) (Av 1hr): -0.5732
- Geranylgeranyl pyrophosphate log2 ratio (+MMV007839/-MMV007839) (Av 1hr): -0.5786
- Gluconate log2 ratio (+MMV007839/-MMV007839) (Av 1hr): 0.1947
- Glucose-6-Phosphate log2 ratio (+MMV007839/-MMV007839) (Av 1hr): -0.1863
- Glutamate log2 ratio (+MMV007839/-MMV007839) (Av 1hr): 0.1005
- Glutamine log2 ratio (+MMV007839/-MMV007839) (Av 1hr): 0.7703
- Glutathione disulfide log2 ratio (+MMV007839/-MMV007839) (Av 1hr): 0.1943
- Glutathione log2 ratio (+MMV007839/-MMV007839) (Av 1hr): -0.1919
- Glyceraldehyde 3-phosphate log2 ratio (+MMV007839/-MMV007839) (Av 1hr): -0.7606
- Glycerone phosphate log2 ratio (+MMV007839/-MMV007839) (Av 1hr): 0.5926
- HLD log2 ratio (+MMV007839/-MMV007839) (Av 1hr): -0.3486
- HVDD log2 ratio (+MMV007839/-MMV007839) (Av 1hr): -0.6691
- Histidine log2 ratio (+MMV007839/-MMV007839) (Av 1hr): 0.5758
- Homoserine log2 ratio (+MMV007839/-MMV007839) (Av 1hr): 0.3097
- Hydroxy-L-proline log2 ratio (+MMV007839/-MMV007839) (Av 1hr): 0.2443
- Hypoxanthine log2 ratio (+MMV007839/-MMV007839) (Av 1hr): 0.3704
- IDP log2 ratio (+MMV007839/-MMV007839) (Av 1hr): -0.1758
- IMP log2 ratio (+MMV007839/-MMV007839) (Av 1hr): -0.02277
- Inosine log2 ratio (+MMV007839/-MMV007839) (Av 1hr): 0.5137
- Isoleucine log2 ratio (+MMV007839/-MMV007839) (Av 1hr): 0.3056
- LD log2 ratio (+MMV007839/-MMV007839) (Av 1hr): 0.3825
- Lactate log2 ratio (+MMV007839/-MMV007839) (Av 1hr): 2.358
- Leucine log2 ratio (+MMV007839/-MMV007839) (Av 1hr): 0.1553
- Lysine log2 ratio (+MMV007839/-MMV007839) (Av 1hr): 1.68
- Malate log2 ratio (+MMV007839/-MMV007839) (Av 1hr): 0.1358
- Mannitol log2 ratio (+MMV007839/-MMV007839) (Av 1hr): 0.0108
- Methionine log2 ratio (+MMV007839/-MMV007839) (Av 1hr): 0.2615
- Myristic acid log2 ratio (+MMV007839/-MMV007839) (Av 1hr): 0.2261
- N-Acetyl-glutamate log2 ratio (+MMV007839/-MMV007839) (Av 1hr): -0.007377
- N-Carbamoyl-L-aspartate log2 ratio (+MMV007839/-MMV007839) (Av 1hr): -1.378
- NAD+ log2 ratio (+MMV007839/-MMV007839) (Av 1hr): 0.03204
- NADH log2 ratio (+MMV007839/-MMV007839) (Av 1hr): -1.36
- NADP+ log2 ratio (+MMV007839/-MMV007839) (Av 1hr): -0.2617
- Octoluse Bisphosphate log2 ratio (+MMV007839/-MMV007839) (Av 1hr): 1.912
- Ornithine log2 ratio (+MMV007839/-MMV007839) (Av 1hr): 0.2172
- Orotate log2 ratio (+MMV007839/-MMV007839) (Av 1hr): -1.216
- Orotidine 5-phosphate log2 ratio (+MMV007839/-MMV007839) (Av 1hr): -1.5
- Orotidine log2 ratio (+MMV007839/-MMV007839) (Av 1hr): -0.4366
- PAEF log2 ratio (+MMV007839/-MMV007839) (Av 1hr): -0.4364
- PAVH log2 ratio (+MMV007839/-MMV007839) (Av 1hr): -1.011
- PD log2 ratio (+MMV007839/-MMV007839) (Av 1hr): 0.2765
- PDAV log2 ratio (+MMV007839/-MMV007839) (Av 1hr): 0.344
- PE log2 ratio (+MMV007839/-MMV007839) (Av 1hr): 1.21
- PEE log2 ratio (+MMV007839/-MMV007839) (Av 1hr): 0.2418
- PHF log2 ratio (+MMV007839/-MMV007839) (Av 1hr): 1.069
- PPVQ log2 ratio (+MMV007839/-MMV007839) (Av 1hr): 0.02129
- PVNF log2 ratio (+MMV007839/-MMV007839) (Av 1hr): -0.3384
- PVQ log2 ratio (+MMV007839/-MMV007839) (Av 1hr): 0.8749
- PVQA log2 ratio (+MMV007839/-MMV007839) (Av 1hr): -0.7385
- Pantothenate log2 ratio (+MMV007839/-MMV007839) (Av 1hr): -0.01312
- Phenylalanine log2 ratio (+MMV007839/-MMV007839) (Av 1hr): 0.1979
- Phosphoenolpyruvate log2 ratio (+MMV007839/-MMV007839) (Av 1hr): 0.299
- Pipecolate log2 ratio (+MMV007839/-MMV007839) (Av 1hr): 0.4539
- Proline log2 ratio (+MMV007839/-MMV007839) (Av 1hr): 0.1646
- Pyridoxine log2 ratio (+MMV007839/-MMV007839) (Av 1hr): 0.1656
- Pyruvate log2 ratio (+MMV007839/-MMV007839) (Av 1hr): 1.42
- Ribose-5-phosphate log2 ratio (+MMV007839/-MMV007839) (Av 1hr): 0.9115
- S-Adenosyl-L-homocysteine log2 ratio (+MMV007839/-MMV007839) (Av 1hr): -0.1282
- SDGLA log2 ratio (+MMV007839/-MMV007839) (Av 1hr): -0.148
- SFGD log2 ratio (+MMV007839/-MMV007839) (Av 1hr): -0.0354
- Sedoheptoluse bisphosphate log2 ratio (+MMV007839/-MMV007839) (Av 1hr): 0.6095
- Sedoheptulose-1/7-phosphate log2 ratio (+MMV007839/-MMV007839) (Av 1hr): 0.1578
- Serine log2 ratio (+MMV007839/-MMV007839) (Av 1hr): 0.004434
- Succinate log2 ratio (+MMV007839/-MMV007839) (Av 1hr): 0.4975
- Succinate semialdehyde log2 ratio (+MMV007839/-MMV007839) (Av 1hr): -0.3802
- TNVK log2 ratio (+MMV007839/-MMV007839) (Av 1hr): -0.9736
- Threonine log2 ratio (+MMV007839/-MMV007839) (Av 1hr): 0.4202
- Tryptophan log2 ratio (+MMV007839/-MMV007839) (Av 1hr): 0.09509
- Tyrosine log2 ratio (+MMV007839/-MMV007839) (Av 1hr): 0.1697
- UDP log2 ratio (+MMV007839/-MMV007839) (Av 1hr): -0.1565
- UDP-N-acetyl-D-glucosamine log2 ratio (+MMV007839/-MMV007839) (Av 1hr): 0.0845
- UDP-glucose log2 ratio (+MMV007839/-MMV007839) (Av 1hr): -0.08513
- UMP log2 ratio (+MMV007839/-MMV007839) (Av 1hr): -0.3602
- Uracil log2 ratio (+MMV007839/-MMV007839) (Av 1hr): -0.4869
- Uric Acid log2 ratio (+MMV007839/-MMV007839) (Av 1hr): 0.02649
- VD log2 ratio (+MMV007839/-MMV007839) (Av 1hr): 1.818
- Valine log2 ratio (+MMV007839/-MMV007839) (Av 1hr): 0.1364
- Xanthine log2 ratio (+MMV007839/-MMV007839) (Av 1hr): 0.3309
- dADP log2 ratio (+MMV007839/-MMV007839) (Av 1hr): -0.3244
- dATP log2 ratio (+MMV007839/-MMV007839) (Av 1hr): 0.05147
- dCDP log2 ratio (+MMV007839/-MMV007839) (Av 1hr): 0.3024
- dGMP log2 ratio (+MMV007839/-MMV007839) (Av 1hr): 0.08489
- dTMP log2 ratio (+MMV007839/-MMV007839) (Av 1hr): -0.02247
- dTTP log2 ratio (+MMV007839/-MMV007839) (Av 1hr): 0.2046
- dUMP log2 ratio (+MMV007839/-MMV007839) (Av 1hr): 1.26
- myo-Inositol log2 ratio (+MMV007839/-MMV007839) (Av 1hr): -0.07002
- sn-Glycerol 3-phosphate log2 ratio (+MMV007839/-MMV007839) (Av 1hr): 1.379
- sn-glycero-3-Phospho-1-inositol log2 ratio (+MMV007839/-MMV007839) (Av 1hr): -0.128
- Hexose-phosphate log2 ratio (+MMV007839/-MMV007839) (Av 1hr, medRt 15.0954): -0.2585
- 6-Phospho-D-gluconate log2 ratio (+MMV007839/-MMV007839) (Av 1hr, medRt 16.8944): -0.386
- Hexose-phosphate log2 ratio (+MMV007839/-MMV007839) (Av 1hr, medRt 17.0788): -1.607
- 6-Phospho-D-gluconate log2 ratio (+MMV007839/-MMV007839) (Av 1hr, medRt 17.4636): -0.04985
- 1-3 (2-3)-diphopshateglycerate log2 ratio (+MMV007839/-MMV007839) (Av 3hr): 0.8355
